Laboratory results taken from US9238626B2 (priority 2012, dated 2016).
Counter-ions that a name gives are not always drawn. Like-named read-outs stand apart in the source and are kept apart here.

Columns and labels:
β-Secretase (BACE-1) = β-Secretase (BACE-1) (Homo sapiens (Human), UniProt P56817); experiment: β-Secretase (BACE-1) inhibition assay; assay type: biochemical
Method: β-Secretase (BACE-1, Sigma) inhibition studies were performed by employing a peptide mimicking APP sequence as substrate (methoxycoumarin-[…]dinitrophenyl, M-2420, Bachem). The following procedure was employed: 5 μL of test compound (or DMSO, if preparing a control well) were pre-incubated with 175 μL of the enzyme (in 20 mM sodium acetate containing CHAPS 0.1% w/v) for 1 h at room temperature. The substrate (3 μM, final concentration) was then added and left to react for 15 min. The fluorescence signal was read at λem=405 nm (λexc=320 nm). […] The fluorescence intensities with and without inhibitor were compared and the percent inhibition due to the presence of test compounds was calculated. The background signal was measured in control wells containing all the reagents, except BACE-1 and subtracted. […] Inhibition curves were obtained by plotting the % inhibition versus the logarithm of inhibitor concentration in the assay sample. The linear regression parameters were determined and the IC50 extrapolated (GraphPad Prism 4.0, GraphPad Software Inc.).

[1] = tested on: human recombinant AChE-induced Aβ1-40 aggregation; experiment: AChE-induced Aβ1-40 aggregation inhibition assay (thioflavin T); conditions: inhibitor 100 μM
Method: Aβ1-40, supplied as trifluoroacetate salt, was purchased from Bachem AG (Germany). Aβ1-40 (2 mg mL^−1) was dissolved in HFIP, lyophilized, and then resolubilized in DMSO to get a 2.3 mM Aβ1-40 solution. 1 mM Solutions of tested inhibitors were prepared by dissolution in MeOH.
Aliquots of 2 μL Aβ1-40 peptide were incubated for 24 h at room temperature in 0.215 M sodium phosphate buffer (pH 8.0) at a final concentration of 230 μM. […] The final volume of each vial was 20 μL. Each assay was run in duplicate. To quantify amyloid fibril formation, the thioflavin T fluorescence method was then applied (cf. H. Naiki et al., “Kinetic Analysis of Amyloid Fibril Polymerization in Vitro”, Lab. Invest. 1991, vol. 65, pp. 104-110). The fluorescence intensities due to β-sheet conformation were monitored for 300 s at λem=490 nm (λexc=446 nm). The percent inhibition of the AChE-induced aggregation due to the presence of the tested compound was calculated by the following expression: 100−(IFi/IFo×100) where IFi and IFe are the fluorescence intensities obtained for Aβ plus AChE in the presence and in the absence of inhibitor, respectively, minus the fluorescence intensities due to the respective blanks.

Aβ1-42 = Aβ1-42 (Homo sapiens, UniProt P05067); experiment: Aβ1-42 self-aggregation inhibition assay (thioflavin T); assay type: biochemical; conditions: inhibitor 10 μM, [Aβ]/[I]=5/1
Method: As reported in a previously published protocol (cf. M. Bartolini et al., “Insight into the Kinetic of Amyloid Beta (1-42) Peptide Self-Aggregation: Elucidation of Inhibitors' Mechanism of Action. ChemBioChem 2007, vol. 8, pp. 2152-2161), HFIP pretreated Aβ1-42 samples (Bachem AG, Switzerland) were solubilized with a CH3CN/0.3 mM Na2CO3250 mM NaOH (48.4:48.4:3.2) mixture to obtain a 500 μM solution. Experiments were performed by incubating the peptide in 10 mM phosphate buffer (pH=8.0) containing 10 mM NaCl, at 30° C. for 24 h (final Aβ concentration 50 μM) with and without inhibitor (10 μM, Aβ/inhibitor=5/1). Blanks containing the tested inhibitors were also prepared and tested.

human serum BChE = human serum BChE (Homo sapiens (Human), UniProt P06276); experiment: BChE inhibition assay (Ellman); assay type: biochemical
Method: BChE inhibitory activity determinations were carried out similarly by the method of Ellman et al., using 0.02 unit/mL of human serum BChE and 300 μM butyrylthiocholine, instead of AChE and acetylthiocholine, in a final volume of 300 μL.
(§1) Results are expressed as mean±S.E.M. of at least 4 experiments performed in duplicate. DTNB, acetylthiocholine, butyrylthiocholine, and enzymes were purchased from Sigma.

[2] = biological target: Electrophorus electricus (ee) AChE (Electrophorus electricus (Electric eel) (Gymnotus electricus), UniProt O42275); experiment: AChE inhibition assay (Ellman), eeAChE; assay type: biochemical
Method: AChE inhibitory activity of compounds (Ia)-(Ie) and (−)-(Ib) and (+)-(Ib) was evaluated spectrophotometrically at 25° C. by the method of Ellman et al., using recombinant human AChE (hAChE) and Electrophorus electricus (ee) AChE and acetylthiocholine iodide as substrate (cf. G. L. Ellman et al., “New and Rapid Colorimetric Determination of Acetylcholinesterase Activity” Biochem. Pharmacol. 1961, vol. 7, pp. 88-95). For eeAChE inhibitory activity determination, the reaction took place in a final volume of 300 μL of 0.1 M phosphate-buffered solution pH 8.0, containing 0.03 unit/mL of ee AChE and 333 μM 5,5′-dithiobis(2-nitrobenzoic) acid (DTNB) solution used to produce the yellow anion of 5-thio-2-nitrobenzoic acid. Inhibition curves were performed in duplicates using at least 10 increasing concentrations of inhibitor and preincubating at 37° C. for 20 min. One duplicate sample without inhibitor was always present to yield 100% of AChE activity. Then, substrate acetylthiocholine (450 μM) was added and the reaction was developed at 37° C. for 5 min. The color production was measured at 414 nm.
as §1

Electrophorus electricus (ee) AChE, sequence (O42275 whole entry, looked up): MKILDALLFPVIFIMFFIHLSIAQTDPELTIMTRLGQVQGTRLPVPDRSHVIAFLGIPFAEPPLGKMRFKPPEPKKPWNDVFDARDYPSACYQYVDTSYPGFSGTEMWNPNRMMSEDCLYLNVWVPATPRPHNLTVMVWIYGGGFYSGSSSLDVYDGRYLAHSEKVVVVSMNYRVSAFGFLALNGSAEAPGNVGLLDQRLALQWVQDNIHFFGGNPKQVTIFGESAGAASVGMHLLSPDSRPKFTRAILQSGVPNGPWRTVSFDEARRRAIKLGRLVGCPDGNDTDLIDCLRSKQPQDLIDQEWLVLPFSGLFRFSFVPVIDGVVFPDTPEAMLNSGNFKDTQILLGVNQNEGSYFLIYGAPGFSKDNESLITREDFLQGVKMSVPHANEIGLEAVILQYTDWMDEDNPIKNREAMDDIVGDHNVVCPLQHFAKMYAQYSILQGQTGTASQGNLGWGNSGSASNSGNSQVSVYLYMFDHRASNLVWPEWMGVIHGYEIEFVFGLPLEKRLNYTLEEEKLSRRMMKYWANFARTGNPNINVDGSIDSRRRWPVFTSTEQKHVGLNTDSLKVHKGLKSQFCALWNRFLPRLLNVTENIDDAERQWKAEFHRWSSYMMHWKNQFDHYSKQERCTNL
β-Secretase (BACE-1), sequence (P56817 46-501): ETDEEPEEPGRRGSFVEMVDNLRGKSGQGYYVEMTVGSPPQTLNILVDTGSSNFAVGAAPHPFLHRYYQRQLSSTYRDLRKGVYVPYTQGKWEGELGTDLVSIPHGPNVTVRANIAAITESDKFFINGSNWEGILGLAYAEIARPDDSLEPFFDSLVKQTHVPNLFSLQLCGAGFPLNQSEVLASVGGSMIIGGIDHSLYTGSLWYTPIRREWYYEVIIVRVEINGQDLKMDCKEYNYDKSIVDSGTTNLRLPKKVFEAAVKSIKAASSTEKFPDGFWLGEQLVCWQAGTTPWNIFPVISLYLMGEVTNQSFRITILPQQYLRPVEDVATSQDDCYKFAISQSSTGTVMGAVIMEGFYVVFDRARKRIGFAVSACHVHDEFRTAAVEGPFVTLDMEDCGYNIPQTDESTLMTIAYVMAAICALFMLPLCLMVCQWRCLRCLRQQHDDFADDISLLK
human serum BChE, sequence (P06276 29-602): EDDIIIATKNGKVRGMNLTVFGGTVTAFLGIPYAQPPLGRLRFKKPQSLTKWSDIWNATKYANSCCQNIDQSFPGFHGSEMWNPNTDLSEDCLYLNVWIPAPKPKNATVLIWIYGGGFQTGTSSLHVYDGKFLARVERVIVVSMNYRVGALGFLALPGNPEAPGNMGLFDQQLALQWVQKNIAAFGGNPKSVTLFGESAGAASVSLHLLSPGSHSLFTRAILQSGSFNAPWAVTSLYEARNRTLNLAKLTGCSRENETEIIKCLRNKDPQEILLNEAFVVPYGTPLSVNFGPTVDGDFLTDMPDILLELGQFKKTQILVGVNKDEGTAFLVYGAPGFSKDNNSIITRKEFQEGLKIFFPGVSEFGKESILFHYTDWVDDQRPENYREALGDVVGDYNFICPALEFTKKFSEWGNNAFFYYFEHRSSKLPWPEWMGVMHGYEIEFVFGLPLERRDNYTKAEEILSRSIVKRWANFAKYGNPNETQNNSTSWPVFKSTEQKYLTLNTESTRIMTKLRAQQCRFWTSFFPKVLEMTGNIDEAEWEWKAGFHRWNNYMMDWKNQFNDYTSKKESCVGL

Row | Compound | IC50 (β-Secretase (BACE-1)) | AChE-induced Aβ1-40 aggregation (%) [1] | Aβ1-42 self-induced aggregation (%) (Aβ1-42) | IC50 (human serum BChE) | IC50 [2] | IC50 ([2]; read-out: IC50 eeAChE) | IC50 (β-Secretase (BACE-1); read-out: BACE-1 IC50) | IC50 (human serum BChE; read-out: IC50 hBChE) | BACE-1 % inhibition at 5 μM (β-Secretase (BACE-1); 5 μM)
1 | CC1=CC2Cc3nc4cc(Cl)ccc4c(NCCCCCCCCNC(=O)c4cc(O)c5c(c4)C(=O)c4cccc(O)c4C5=O)c3C(C1)C2 (racemic) [(±)-(Ia)•HCl, (±)-N-{8-[(3-chloro-6,7,10,11-tetrahydro-9-methyl-7,11-methanocycloocta[b]quinolin-12-yl)amino]octyl}-9,10-dihydro-4,5-dihydroxy-9,10-dioxoanthracene-2-carboxamide] | 980 ± 200 nM | 44.7 ± 8.4% | 33.1 ± 5.4% | 350 ± 17 nM | 88.6 ± 6.7 nM |  |  |  | 
2 | CC1=CC2Cc3nc4cc(Cl)ccc4c(NCCCCCCCCCNC(=O)c4cc(O)c5c(c4)C(=O)c4cccc(O)c4C5=O)c3C(C1)C2 (racemic) [(±)-(Ib)•HCl, (±)-N-{9-[(3-chloro-6,7,10,11-tetrahydro-9-methyl-7,11-methanocycloocta[b]quinolin-12-yl)amino]nonyl}-9,10-dihydro-4,5-dihydroxy-9,10-dioxoanthracene-2-carboxamide] | 120 ± 100 nM | 48.7 ± 8.4% | 38.0 ± 4.6% |  | 32.6 ± 1.7 nM |  |  |  | 
3 | CC1=CC2Cc3nc4cc(Cl)ccc4c(NCCCCCCCCCCNC(=O)c4cc(O)c5c(c4)C(=O)c4cccc(O)c4C5=O)c3C(C1)C2 (racemic) [(±)-(Ic)•HCl, (±)-N-{10-[(3-chloro-6,7,10,11-tetrahydro-9-methyl-7,11-methanocycloocta[b]quinolin-12-yl)amino]decyl}-9,10-dihydro-4,5-dihydroxy-9,10-dioxoanthracene-2-carboxamide] | 1190 ± 200 nM | 29.2 ± 2.4% | 40.9 ± 4.4% | 1100 ± 40 nM | 46.7 ± 2.4 nM |  |  |  | 
4 | CC1=CC2Cc3nc4cc(Cl)ccc4c(NCCCCCCCCCCCNC(=O)c4cc(O)c5c(c4)C(=O)c4cccc(O)c4C5=O)c3C(C1)C2 (racemic) [(±)-(Id)•HCl, (±)-N-{11-[(3-chloro-6,7,10,11-tetrahydro-9-methyl-7,11-methanocycloocta[b]quinolin-12-yl)amino]undecyl}-9,10-dihydro-4,5-dihydroxy-9,10-dioxoanthracene-2-carboxamide] | 1200 ± 100 nM | 38.2 ± 2.6% | 35.3 ± 4.0% | 645 ± 67 nM |  | 16.3 ± 2.3 nM |  |  | 
5 | CC1=CC2Cc3nc4cc(Cl)ccc4c(NCc4ccc(CNC(=O)c5cc(O)c6c(c5)C(=O)c5cccc(O)c5C6=O)cc4)c3C(C1)C2 (racemic) [(±)-(Ie)•HCl, (±)-N-{4-{[(3-chloro-6,7,10,11-tetrahydro-9-methyl-7,11-methanocycloocta[b]quinolin-12-yl)amino]methyl}benzyl}-9,10-dihydro-4,5-dihydroxy-9,10-dioxoanthracene-2-carboxamide] | 2020 ± 400 nM | 35.2 ± 1.8% | 32.4 ± 3.6% | 510 ± 20 nM |  | 60 ± 7.5 nM |  |  | 
6 | CC1=C[C@@H]2Cc3nc4cc(Cl)ccc4c(N)c3[C@H](C1)C2.Cl [(+)-Huprine Y•HCl, huprine Y, reference compound] |  | 9.1 ± 3.6% | 13.2 ± 1.9% |  |  | 373 ± 50 nM | > 5000 nM | 170 ± 17 nM | 
7 | CC1=C[C@@H]2Cc3nc4cc(Cl)ccc4c(N)c3[C@H](C1)C2.Cl [(−)-Huprine Y•HCl, huprine Y, reference compound] |  | 24.7 ± 1.3% | 11.5 ± 5.2% |  |  | 0.06 ± 0.01 nM | > 5000 nM | 222 ± 17 nM | (14.0 ± 0.1% at
8 | O=C(O)c1cc(O)c2c(c1)C(=O)c1cccc(O)c1C2=O [Rhein, rhein, reference compound] |  |  |  |  | 637 ± 87 nM |  |  | 17000 ± 4220 nM | 
9 | huprine Y [(±)-Huprine Y•HCl, reference compound] |  | 17.1 ± 4.5% |  |  |  | 0.08 ± 0.01 nM |  |  | 
